Patent US8188306B2, “Heat shock protein 90 inhibitors” (University of Kansas, priority 2004, dated 2012)

Molecular target: T1, Recombinant yeast Hsp90 (Saccharomyces cerevisiae, UniProt P02829)
T1 construct: made in house
Test: Inhibition of Hsp90 ATPase activity, production of inorganic phosphate
Format: biochemical
Settings: incubated with ATP
Description: The present invention also evaluated the biological activity of some of the RAD amides prepared in accordance with the present invention. Recombinant yeast Hsp90 was overexpressed and purified according to the procedure of Buchner. Richter, et al., Coordinated ATP Hydrolysis by the Hsp90 Dimer. […] The yeast was a kind gift from Boris Kornikaeve at the University of Kansas Biomedical Research Service Laboratory.
The pure protein was incubated with ATP and one of three RAD amides (the quinone, the 1,4-hydroxy, or the 1,4-methoxy), and the production of inorganic phosphate was determined.

T1 sequence (P02829 whole entry): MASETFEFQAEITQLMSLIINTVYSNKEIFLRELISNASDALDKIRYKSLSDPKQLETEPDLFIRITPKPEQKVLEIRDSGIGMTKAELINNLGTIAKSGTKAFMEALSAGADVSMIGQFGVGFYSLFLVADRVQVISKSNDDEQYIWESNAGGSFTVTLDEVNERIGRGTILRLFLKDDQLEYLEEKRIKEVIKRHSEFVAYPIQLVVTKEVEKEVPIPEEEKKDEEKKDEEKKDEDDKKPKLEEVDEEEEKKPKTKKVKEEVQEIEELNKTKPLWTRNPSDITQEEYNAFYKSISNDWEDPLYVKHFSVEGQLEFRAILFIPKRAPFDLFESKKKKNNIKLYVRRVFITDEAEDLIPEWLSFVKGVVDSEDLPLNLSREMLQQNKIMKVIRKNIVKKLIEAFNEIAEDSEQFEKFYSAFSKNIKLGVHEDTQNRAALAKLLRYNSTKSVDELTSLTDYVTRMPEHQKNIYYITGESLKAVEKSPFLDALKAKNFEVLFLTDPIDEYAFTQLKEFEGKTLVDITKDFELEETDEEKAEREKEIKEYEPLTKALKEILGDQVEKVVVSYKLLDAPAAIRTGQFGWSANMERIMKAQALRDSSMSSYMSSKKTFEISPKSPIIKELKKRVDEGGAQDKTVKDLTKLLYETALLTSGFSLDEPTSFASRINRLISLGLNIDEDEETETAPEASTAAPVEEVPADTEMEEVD

Compound: COC(=O)c1c(O)cc(O)c(Cl)c1CCC(=O)NC1=CC(=O)C(OC)=CC1=O [Quinone]
- IC50 (IC50 (μm), table): 5.9 µM
- IC50 (IC50 / inhibitory activity): 1.8 µM
